US20200223839A1, “FLUORO-CONTAINING COMPOUNDS, USE AND PREPARATION THEREOF” (JIANGSU YINGKEBEITA YIYAOKEJI CO. LTD, priority 2017, published 2020)

Experiments:
HCC1937 = assay: Cell culture and cytotoxicity assay (CTG), HCC1937; assay type: cell-based; details: Homo sapiens, HCC1937, exposure 72 hours
Description: (§1) The assayed compounds each was dissolved in DMSO with a final concentration of 10 mM or 40 mM and stored at −20° C. Tumor cell lines A549 (7,000 cells/well), BT474 (12,000 cells/well), MDA-MB-468 (12,000 cells/well), and HCC1937 (6,000 cells/well) were seeded on 96-well plates. And the cells were pre-incubated at 37° C./5% CO2 for 24 hours. The cells were exposed to different concentrations of the assay compounds (from 400 μM to 782 nM, from 200 μM to 391 nM, from 100 μM to 196 nM, and from 50 μM to 98 nM) for the following time:
(§2) After incubation, 100 μL from each well was discarded and CTG base (Proega, G7571, 50 μL) was added and the mixture was agitated for 2 minutes. The mixtures were stored in a dark room for 10 minutes and the viability was analyzed with Multiskan microplate reader.

MDA-MB-468 = assay: Cell culture and cytotoxicity assay (CTG), MDA-MB-468; assay type: cell-based, human; details: Homo sapiens; MDA-MB-468, exposure 72 hours, CTG
Description: as §1, §2

BT474 = assay: Cell culture and cytotoxicity assay (CTG), BT474; assay type: cell-based; details: Homo sapiens, BT-474, BT474, exposure 96 hours
Description: as §1, §2

MDA-MB-468 cell line = assay: Anti-tumor activity against MDA-MB-468 cell line (CCK-8 test); assay type: cell-based; details: Homo sapiens, MDA-MB-468, 72 h
Description: A cryo tube was removed from liquid nitrogen. As quickly as possible, the cells were thawed by placing the vial in a 37° C. water bath and gently shaking the vials. The cells were transferred to medium tube, which containing 5 mL medium, and were centrifuged at 1000 rpm for 6 min. The supernatant containing dead cells and cell debris was discarded. 1 mL of pre-warmed medium with 10% FBS was add and the solution was re-suspended. The plate was placed in 37° C. and 5% CO2 incubator. The medium was changed next day.
Cells in logarithmic growth stage were taken and culture medium was discarded. 1 mL 0.25% trypsin solution was added for twice. The trypsin solution was removed and the 0.5 ml 0.25% trypsin solution was added to the cell flask. The plate was placed in 37° C. and 5% CO2 incubator for a few minutes until the cells recovered. 1 mL medium was added to stop digestion. The liquid was transferred by pipette for experiment.
the cells were suspended and the medium was discarded. 1 mL 0.25% trypsin solution was added for twice and the trypsin digestion was centrifuged. The cells were suspended with the culture medium, count and adjusted to the appropriate concentration.
The cell suspension was added to the 96-well plate with a volume of 100 uL per well, as shown in Tab. 5, and was placed in 37° C., 5% CO2 incubator overnight.
Preparation of Compounds Working Solution.
The test compounds were dissolved in DMSO at 10 mM with sterile filter (0.22 um, nelon, JET). After filtering, the solution were continuously diluted by three times with DMSO. A total of six concentration were prepared, as shown below.
6 uL compound solution was added to 594 uL medium and the solution was added to 96-well plate as shown and cultured for 72 h in CO2 incubator.
A CCK-8 solution was prepared according to the instructions and the 96-well plate was taken out and the original medium discarded. 100 uL cck-8 solution was added to each well in the 96-well plate. Photoabsorption data were read by TECAN enzyme marker after a period of time.
IC (%)=[Ac-As]/[Ac-Ab]*100% • As: Experimental well (containing culture medium, cell, CCK-8 and compound); • Ac: Controlled well (containing culture medium, cell and CCK-8); • Ab: Blank well (Only containing medium and CCK-8).

A549 = assay: Cell culture and cytotoxicity assay (CTG), A549; assay type: cell-based; details: Homo sapiens, A549, exposure 72 hours
Description: as §1, §2

[1] = In vivo xenograft study, MDA-MB-468, mice weights; details: MDA-MB-468 xenograft in BALB/c-nu mice, FIGS. 3 and 5
Description: (§3) MDA-MB-468 cells (human breast cancer) in its log growth phase were implanted in BALB/c-nu mice. When the tumor volume was approximately 50-150 mm^3, the mice were randomized into four groups, each include 8 mice. The four groups were treated with vehicle, Ref. 1, 4f, and Ref. 2, respectively, and the tumor sizes were measured two to three times each week and the mice were also weighted.

[2] = test system: MDA-MB-468 cells (human breast cancer) implanted in BALB/c-nu mice; assay: In vivo xenograft study, MDA-MB-468, tumor sizes; details: MDA-MB-468 xenograft in BALB/c-nu mice, FIGS. 2 and 4
Description: as §3

[3] = In vivo mouse model, MDA-MB-453, mice weights; details: MDA-MB-453 mouse model, FIG. 7, dose of this group not given
Source text: MDA-MB-453 cells (human breast cancer) were also studied in a mouse model. […] FIG. 7.

[4] = In vivo mouse model, Hep3B, mice weights; details: FIG. 9, dose of this group not given
Source text: Hep3B cells (human liver cancer) were also studied in a mouse model. […] FIG. 9.

| SMILES | IC50 (MDA-MB-468) [nM] | IC50 (BT474) [nM] | IC50 (MDA-MB-468 cell line) [nM] | further results |
| --- | --- | --- | --- | --- |
| Cc1ccc(S(=O)(=O)Nc2nc3ccccc3nc2Nc2ccc3nsnc3c2)c(F)c1 [Compound 4, N-[3-(benzo[1,2,5]thiadiazol-5-ylamino)-quinoxalin-2-yl]-2-fluoro-4-methyl-benzenesulfonamide] | 4250 | > 50000 | – | IC50 (HCC1937): 114000 nM |
| O=S(=O)(Nc1nc2ccccc2nc1Nc1ccc2nsnc2c1)c1ccc(F)c(F)c1 [Compound 7] | – | – | 469 | – |
| O=S(=O)(Nc1nc2ccccc2nc1Nc1ccc2nsnc2c1)c1ccc(Br)c(F)c1 [Compound 8] | – | – | 811 | – |
| COc1ccc(S(=O)(=O)Nc2nc3ccccc3nc2Nc2ccc3nsnc3c2)cc1F [Compound 9] | – | – | 1400 | – |
| CCNc1ccc(S(=O)(=O)Nc2nc3ccccc3nc2Nc2ccc3nsnc3c2)cc1F [Compound 10] | – | – | 7090 | – |
| Cc1ccc(S(=O)(=O)Nc2nc3ccccc3nc2Nc2ccc3nsnc3c2)cc1 [Ref. 1, reference compound] | 2060 | 28200 | 2670 | IC50 (A549): > 50000 nM; weight changes of mice [1]: no significant weight changes; anticancer activity (tumor sizes) versus vehicle [2]: no significant difference |
| COc1ccc(Cl)c(Nc2nc3ccccc3nc2NS(=O)(=O)c2cccc(NC(=O)C(C)(C)N)c2)c1 [Ref. 2, reference compound] | 12500 to 25000 | 25000 to 50000 | 4910 | IC50 (HCC1937): 50000 to 100000 nM; IC50 (A549): 25000 to 50000 nM; weight changes of mice [1]: no significant weight changes; weight changes [3]: no difference in weight changes; anticancer activity (tumor sizes) versus vehicle [2]: no significant difference; weight changes [4]: no difference in weight changes |
